Where no end group is shown, it is not given here.
Key:
[1] = In vivo disappearance of GLP-1; set-up: species or system male C57Bl6/JRj mice; conditions: 800 fmol i.v. tail vein; sitagliptin 10 mg/kg oral 30 min before; Alpco kit; n=5
[2] = In vivo disappearance of GLP-1; set-up: species or system male C57Bl6/JRj mice; conditions: 800 fmol into vena cava, n=4
[3] = estimated, after secretion; ref [2]; cited from earlier work
[4] = test system: intact GLP-1; format: in vivo, male C57Bl/6JRj mice
[5] = test system: blood glucose; experiment: Blood glucose during OGTT with in vivo enzyme inhibition; set-up: species or system male C57Bl/6JRj mice; conditions: valine pyrrolidide only, mean [95% CI], p=0.0023
[6] = in humans; background statement, no reference given; cited from earlier work

## CC[C@H](C)[C@H](NC(=O)[C@H](Cc1ccccc1)NC(=O)[C@H](CCC(=O)O)NC(=O)[C@H](CCCCN)NC(=O)[C@H](C)NC(=O)[C@H](C)NC(=O)[C@H](CCC(N)=O)NC(=O)CNC(=O)[C@H](CCC(=O)O)NC(=O)[C@H](CC(C)C)NC(=O)[C@H](Cc1ccc(O)cc1)NC(=O)[C@H](CO)NC(=O)[C@H](CO)NC(=O)[C@@H](NC(=O)[C@H](CC(=O)O)NC(=O)[C@H](CO)NC(=O)[C@@H](NC(=O)[C@H](Cc1ccccc1)NC(=O)[C@@H](NC(=O)CNC(=O)[C@H](CCC(=O)O)NC(=O)[C@H](C)NC(=O)[C@@H](N)Cc1c[nH]cn1)[C@@H](C)O)[C@@H](C)O)C(C)C)C(=O)N[C@@H](C)C(=O)N[C@@H](Cc1c[nH]c2ccccc12)C(=O)N[C@@H](CC(C)C)C(=O)N[C@H](C(=O)N[C@@H](CCCCN)C(=O)NCC(=O)N[C@@H](CCCNC(=N)N)C(N)=O)C(C)C [GLP-1(7–36)NH2]
[1]
  calculated half-life, sitagliptin: 1.53 min
[2]; isoflurane-sedated mice, no inhibitors
  half-life, control: 0.79 min
[2]; isoflurane-sedated mice, sitagliptin 30 min before
  half-life, sitagliptin: 1.35 min
[2]; sitagliptin 30 min before
  initial peak plasma value, sitagliptin only: ~50 pmol/L
[3]
  share of intact GLP-1 that reaches the systemic circulation: 7-8%

## CCOC(=O)[C@H](C)C[C@@H](Cc1ccc(-c2ccccc2)cc1)NC(=O)CCC(=O)O [sacubitril]
[4]; sacubitril alone, oral 0.3 mg/kg, 30 min before OGTT, mean [95% CI], p>0.99, n=6
  difference in AUC of intact GLP-1 versus control: 4.0 pmol/L/min

## N[C@@H](CC(=O)N1CCn2c(nnc2C(F)(F)F)C1)Cc1cc(F)c(F)cc1F [sitagliptin, Sitagliptin]
[4]; oral sitagliptin 10 mg/kg 30 min before OGTT, Alpco kit, mean ± SD, n=6, SD
  intact GLP-1 level after the OGTT, at 5 minutes: 10.9 ± 3.9 pmol/L

## CC(C)[C@H](N)C(=O)N1CCCC1 [valine pyrrolidide]
[4]; i.p. valine pyrrolidide 15 mg/kg 30 min before OGTT, Alpco kit, mean ± SD, n=5, SD
  intact GLP-1 level after the OGTT: 5.1 ± 0.9 pmol/L
[4]; oral valine pyrrolidide 20.6 mg/kg 30 min before OGTT, Alpco kit, mean ± SD, n=5, SD
  intact GLP-1 level after the OGTT, at 10 minutes: 9.2 ± 6.3 pmol/L
[5]
  suppression in the rise of glucose at 20 minutes (difference versus control): -6.2 mmol/L

## GLP-1(9–36)NH2 (EGTFTSDVSSYLEGQAAKEFIAWLVKGR-NH2; UniProt P01275 100-127, looked up, fragment)
[6]
  plasma half-life: about 5 min

From doi:10.1101/2023.10.19.563029v1 (bioRxiv, 2023)
